Drawing on ChEMBL document CHEMBL1130873 (Bioorg Med Chem Lett, 1998), this text covers IC50 and CT10 for 2 compounds.

A short description of experiment [1]: Aerobic cytotoxic activity was evaluated by the growth inhibition of AA8 (chinese hamster) aerobic cells. In kind it is functional, cell-based. Conditions: Cricetulus griseus, CHO-AA8.
The subject of experiment [2] is SK-OV-3. The experiment in a line: (§1) Aerobic cytotoxic activity was evaluated by the growth inhibition of SKOV (human ovarian cancer line) aerobic cells. In kind it is functional, cell-based.
Experiment [3] can be described thus: Concentration required to reduce cell survival tunder hypoxic conditions using the UV4 aerobic cells. In kind it is functional, Cricetulus griseus.
Experiment [4] can be described thus: Aerobic cytotoxic activity was evaluated by the growth inhibition of UV4 aerobic cells. In kind it is functional, cell-based. Conditions: Cricetulus griseus.
The subject of experiment [5] is SK-OV-3. The description is as §1. In kind it is functional.
Experiment [6] can be described thus: Concentration required to 10% of controls reduce cell survival under hypoxic conditions using the UV4 aerobic cells. In kind it is functional, Cricetulus griseus.

As for `NC(=O)c1cc(N(CCCl)CCCl)c([N+](=O)[O-])cc1[N+](=O)[O-]`, the results for the IC50 in experiment [1], in experiment [2] and in experiment [4] were 1450 µM, more than 1000 µM and 870 µM, respectively. In addition, the CT10 in experiment [3] amounted to 95 µM.
As to `CN(C)CCNC(=O)c1cc(N(CCCl)CCCl)c([N+](=O)[O-])cc1[N+](=O)[O-]`, the IC50 (usually the point on the concentration scale where inhibition reaches its midpoint) in experiment [1] stood at 220 µM; in experiment [4], 3.1 µM. The CT10 came out at 1300 µM in experiment [5] and 400 µM in experiment [6].
